From patent US20100261753A1, “METHODS FOR PREVENTING AND/OR TREATING DEGENERATIVE DISORDERS OF THE CENTRAL NERVOUS SYSTEM” (AMICUS THERAPEUTICS, INC., priority 2009, published 2010) come the findings set out here.

SMILES strings stand for the structures. “And” between values parts separate entries of the source, which are not always exact repeats. Identical values can stand only once. Counter-ions that a name gives are not always drawn. Like-named read-outs stand apart in the source and are kept apart here.

For data set [1], the target named is T1, recombinant human GCase (rhGCase; Cerezyme) (Homo sapiens, UniProt P04062, R534H).
T1 construct: purchased Genzyme Corp
T1 sequence (P04062 40-536 R534H): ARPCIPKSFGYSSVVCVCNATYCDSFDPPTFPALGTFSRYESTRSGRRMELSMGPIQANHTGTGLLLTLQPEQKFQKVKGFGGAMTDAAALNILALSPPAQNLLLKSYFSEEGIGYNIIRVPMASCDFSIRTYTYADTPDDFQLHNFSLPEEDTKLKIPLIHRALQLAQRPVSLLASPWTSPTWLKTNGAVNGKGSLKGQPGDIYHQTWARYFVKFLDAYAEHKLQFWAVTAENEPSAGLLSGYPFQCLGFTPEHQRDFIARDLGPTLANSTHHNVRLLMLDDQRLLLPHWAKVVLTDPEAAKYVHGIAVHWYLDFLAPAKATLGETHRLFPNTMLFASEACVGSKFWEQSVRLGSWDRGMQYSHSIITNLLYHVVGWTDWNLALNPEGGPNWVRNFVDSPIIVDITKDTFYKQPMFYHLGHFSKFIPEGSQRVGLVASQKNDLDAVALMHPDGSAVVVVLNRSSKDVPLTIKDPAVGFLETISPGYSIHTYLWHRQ
The data set is described as follows: In vitro enzyme inhibition assay of rhGCase with 4-MU-β-D-Glc substrate. The data set is classed as biochemical. The conditions noted are these: for Ki: from IC50 by Cheng-Prusoff equation. On the procedure:
The binding affinity (defined here by Ki binding constant) of GCase for small molecule pharmacological chaperones described in this document were empirically determined using enzyme inhibition assays. In brief, the enzyme inhibition assays used monitored the ability of test compound to bind and prevent the hydrolysis of a fluorogenic substrate in a concentration-dependent manner. Specifically, the enzyme activity of recombinant human GCase (rhGCase; Cerezyme®, Genzyme Corp.) was measured using the 4-methylumbelliferyl-β-D-glucopyranoside (4-MU-β-D-Glc) fluorogenic substrate in the absence or in the presence of varying amounts of each test compound. […] The enzyme inhibition assays were performed at both pH 7.0 (endoplasmic reticulum pH) and at pH 5.2 (lysosomal pH) to gain insight into the binding affinity (i.e., potency) of compounds for GCase in the endoplasmic reticulum and lysososome.
Enzyme (Cerezyme®, a recombinant form of the human enzyme β-glucocerebrosidase) was also diluted in the same buffer “M” at pH 7.0 and pH 5.2. […] Five μl of diluted enzyme was added to 15 μl of the various inhibitor concentrations or buffer “M” alone and incubated at 37° C. for 1 hour with 50 μl of the substrate preparation to assess β-glucosidase activity at pH 7.0 and pH 5.2.

Data set [2] is described as follows: Compound concentration in brain, spleen and plasma samples of the GCase enhancement study. The data set is classed as in vivo, mice (C57BL/6). The conditions noted are these: male, C57BL/6, mouse, po, nine doses, 24-hour washout. On the procedure:
The ability of orally administered test compounds (the hydrochloride salt form of Compound A and Compound B) to elevate GCase levels as compared to reference compound, IFG-tartrate, was assessed in mice. […] Seven animals were used per dose. The dosing solutions were prepared in water. Compounds were administered over 2 weeks as follows: week 1, Mon-Fri (On), Sat-Sun (Off); week 2, Mon-Thu (On); necropsy on Friday. Thus, a total of 9 doses (dosing solutions prepared fresh every day) were given to each mouse, with a 24-hour washout between the last dose and necropsy.
Plasma was collected by spinning blood at 2700 g for 10 minutes at 4° C. Liver, spleen, lung, and brain tissues were removed, washed in cold PBS, blotted dry, flash frozen on dry ice, and stored at −80° C. until analysis. GCase levels were measured by homogenizing approximately 50 mg tissue in 500 μl McIlvane (MI) buffer (100 mM sodium citrate, 200 mM sodium phosphate dibasic, 0.25% sodium taurocholate, and 0.1% Triton X-100, pH 5.2) at pH 5.2 for 3-5 seconds on ice with a micro homogenizer. Homogenates were then incubated at room temperature without and with 2.5 mM conduritol-B-epoxide (CBE) for 30 min. Finally, 3.7 mM 4-methylumbeliferryl-β-glucoside (4-MUG) substrate was added and incubated at 37° C. for 60 min. Reactions were stopped by addition of 0.4 M glycine, pH 10.6. Fluorescence was measured on a plate reader for 1 sec/well using 355 nm excitation and 460 nm emission. Total protein was determined in lysates using the MicroBCA kit according to the manufacturer's instructions. A 4-methylumbelliferone (4-MU) standard curve ranging from 1.0 nM to 50 μM was run in parallel for conversion of raw fluorescence data to absolute GCase activity (in the presence and absence of CBE) and expressed as nanomoles of 4-MU released per milligram of protein per hour (nmol/mg protein/hr). GCase levels and protein levels were calculated using Microsoft Excel (Redmond, Wash.) and GraphPad Prism version 4.02.

Another data set in a line: Rat pharmacokinetics. The data set is classed as in vivo, Sprague-Dawley rats. Here is the method: Pharmacokinetic (PK) data was obtained in rats to assess the bioavailability of test compound. In particular, the following PK parameters were calculated: bioavailability as measured by area under the Concentration/Time curve (AUC), fraction of dose available (% F; further defined below), clearance (CL), volume of distribution (Vd), and half-life (t½). For this purpose, 8-week old Sprague-Dawley male rats were given either a single intravenous (IV) dose equivalent to 3 mg/kg of free base or single escalating p.o. (gavage) doses of test compound equivalent to 10, 30, and 100 mg/kg of free base. Three rats were used per dosing group. Blood was collected over a 24-hr period. The time points for blood collection after intravenous administration were: 0, 2.5, 5, 10, 15, 30, 45 min, 1, 2, 4, 8, 12, and 24 hrs; time points for blood collection after p.o. administrations were: 0, 5, 15, 30, 45 min, 1, 2, 3, 4, 8, 12, and 24 hrs. Plasma samples were analyzed for compound levels by LC-MS/MS at PPD. Raw data was analyzed by non-compartmental analysis in Win-nonLin to calculate Vd, % F, CL, and […].

The mark [3] stands for this setting: pH 7 (endoplasmic reticulum pH), read-out: IC50 pH 7.
[4] abbreviates: male, Sprague-Dawley, plasma, IV, 3 mg/kg free base.

One may read the IC50 as the concentration that gives 50% inhibition. As a reminder, the Ki is the dissociation constant of the complex between target and ligand, obtained from inhibition or displacement. As a reminder, the Cmax is the maximum level reached in the sampled fluid or tissue. Broadly, the Vd is the apparent volume that relates the amount in the body to the concentration in plasma or blood. Higher therefore signals extensive tissue distribution. One may read the clearance as the volume of plasma or blood freed of the substance per unit of time. A high value points to efficient removal. Broadly, the AUC(0-t) is the area under the concentration-time curve up to a stated or last time point.

Turning to `O[C@@H]1[C@@H](CCl)CNC[C@H]1O` [Compound B, (3R,4R,5S)-5-(chloromethyl)piperidine-3,4-diol], the IC50 was found to be 73 ± 9 nM in data set [1] (pH 5.2, average of three independent experiments, Table 4A, read-out: IC50 pH 5.2); 73 ± 9 nM in data set [1] (pH 5.2, average of three independent experiments, Table 4B, read-out: IC50 pH 5.2); 9.8 ± 0.5 nM in data set [1] (setting [3]). The Ki in data set [1] (pH 5.2, read-out: Ki pH 5.2) turned out to be 384 ± 2.1 nM; in data set [1] (pH 7, read-out: Ki pH 7) it was 5.1 ± 0.3 nM. In addition, the concentration at 24 h in data set [2] (brain, 10 mg/kg p.o., Table 4A) stood at 246 ± 42 nM; in data set [2] (brain, 100 mg/kg p.o., Table 4A) it was 2070 ± 231 nM; in data set [2] (plasma, 10 mg/kg p.o., Table 4C) it was 104 ± 15 nM; in data set [2] (plasma, 100 mg/kg p.o., Table 4C), 1530 ± 601 nM; in data set [2] (spleen, 10 mg/kg p.o., Table 4B) it was 645 ± 214 nM; in data set [2] (spleen, 100 mg/kg p.o., Table 4B), 2160 ± 464 nM.

For the compound `O[C@@H]1CNCC(CF)[C@H]1O` (stereo in doubt) [Compound A, (3R,4R,5R)-5-(fluoromethyl)piperidine-3,4-diol], the CL in “Rat pharmacokinetics” (PO, 30 mg/kg free base) came to 66.82 ± 8.48 mL/min/kg; in the data set “Rat pharmacokinetics” (PO, 100 mg/kg free base), 56.55 ± 3.48 mL/min/kg. Also, the VD worked out at 13532 ± 3291 mL/kg in “Rat pharmacokinetics” (PO, 30 mg/kg free base) and 13101 ± 1518 mL/kg in the data set “Rat pharmacokinetics” (PO, 100 mg/kg free base). Further, the Cmax in “Rat pharmacokinetics” (setting [4]) is 7270 ± 139 ng/mL; in “Rat pharmacokinetics” (male, Sprague-Dawley, plasma, PO, 10 mg/kg free base), 1290 ± 271 ng/mL; in “Rat pharmacokinetics” (male, Sprague-Dawley, plasma, PO, 30 mg/kg free base) it was 2870 ± 355 ng/mL; in the data set “Rat pharmacokinetics” (male, Sprague-Dawley, plasma, PO, 100 mg/kg free base), 9390 ± 742 ng/mL. For the same compound, the Vd in the data set “Rat pharmacokinetics” (setting [4]) was 3.48 ± 0.232 L/kg. Besides, the clearance in the data set “Rat pharmacokinetics” (setting [4]) was 27.8 mL/min/kg. Besides, the AUC(0-t) in “Rat pharmacokinetics” (male, Sprague-Dawley, plasma, IV, 3 mg/kg free base (3.72 mg/kg salt)) turned out to be 1800 ± 42.7 ng·h/mL; in the data set “Rat pharmacokinetics” (male, Sprague-Dawley, plasma, PO, 10 mg/kg free base (12.4 mg/kg salt)), 2980 ± 228 ng·h/mL; in “Rat pharmacokinetics” (male, Sprague-Dawley, plasma, PO, 30 mg/kg free base (37.2 mg/kg salt)), 8250 ± 388 ng·h/mL; in the data set “Rat pharmacokinetics” (male, Sprague-Dawley, plasma, PO, 100 mg/kg free base (124 mg/kg salt)), 29600 ± 1750 ng·h/mL. The half-life in the data set “Rat pharmacokinetics” (male, Sprague-Dawley, plasma, IV, 3 mg/kg free base, read-out: t1/2 (converted)) is 84 ± 6 min; in “Rat pharmacokinetics” (male, Sprague-Dawley, plasma, PO, 10 mg/kg free base, read-out: t1/2 (converted)), 72 ± 24 min; in the data set “Rat pharmacokinetics” (male, Sprague-Dawley, plasma, PO, 30 mg/kg free base, read-out: t1/2 (converted)) it was 138 ± 18 min; in “Rat pharmacokinetics” (male, Sprague-Dawley, plasma, PO, 100 mg/kg free base, read-out: t1/2 (converted)), 156 ± 6 min. In addition, the bioavailability in “Rat pharmacokinetics” (male, Sprague-Dawley, plasma, PO, 10 mg/kg free base, read-out: % F) came out at 50 ± 3.8%; in the data set “Rat pharmacokinetics” (male, Sprague-Dawley, plasma, PO, 30 mg/kg free base, read-out: % F), 46 ± 2.5%; in “Rat pharmacokinetics” (male, Sprague-Dawley, plasma, PO, 100 mg/kg free base, read-out: % F), 49 ± 2.7%. Also, the IC50 turned out to be 10 ± 1 nM in data set [1] (pH 5.2, average of three independent experiments, Table 3A, read-out: IC50 pH 5.2) and 10 ± 1 nM in data set [1] (pH 5.2, average of three independent experiments, Table 3B, read-out: IC50 pH 5.2). Also, the concentration at 24 h in data set [2] (brain, 10 mg/kg p.o., Table 3A) was found to be 124 ± 11 nM; in data set [2] (brain, 100 mg/kg p.o., Table 3A), 726 ± 51 nM; in data set [2] (plasma, 10 mg/kg p.o., Table 3C), 32 ± 2.4 nM; in data set [2] (plasma, 100 mg/kg p.o., Table 3C), 254 ± 73.5 nM; in data set [2] (spleen, 10 mg/kg p.o., Table 3B), 69 ± 6 nM; in data set [2] (spleen, 100 mg/kg p.o., Table 3B), 304 ± 63 nM.

In the case of `O[C@@H]1CNCC(CF)[C@H]1O` (stereo in doubt) [Compound A-HCl, (3R,4R,5R)-5-(fluoromethyl)piperidine-3,4-diol hydrochloride], the bioavailability in “Rat pharmacokinetics” (male, Sprague-Dawley, plasma, po, read-out: oral bioavailability) is ~50%. The half-life in “Rat pharmacokinetics” (male, Sprague-Dawley, plasma, read-out: half-life) is 60 to 150 min. In addition, the Ki in data set [1] (pH 5.2, read-out: Ki pH 5.2) is 6 nM; in data set [1] (pH 7, read-out: Ki pH 7), 3 nM and 4 nM. In addition, in data set [1] (setting [3]), the IC50 is 6 nM and 7 nM.
